Data: US20220409620A1, “REDUCING IMMUNOGENICITY TO PEGLOTICASE” (Horizon Pharma Rheumatology LLC, priority 2016, published 2022)

Test system: adult patients with uncontrolled gout
Test: Tender and swollen joint counts, open-label study
Type: in vivo, human
Experimental: Tender and Swollen Joint Counts: Tender and swollen (excludes hip) joint counts were recorded at the Week −4 or week −6 (prior to the first dose of MTX) Visit during the MTX Run-in Period for the open-label and randomized studies, respectively; prior to pegloticase infusion at the Day 1 and Weeks 14, 24 and 36 Visits, or at the Day 1 and weeks 6, 14, 20, 24, 30, 36, and 44 visits during the Pegloticase+IMM Period for the open-label and randomized studies, respectively; and at the End of Pegloticase Infusions Visit (if applicable) and the Week 52/End of Study/Early Termination Visit and the Post Treatment 3 and 6 month Follow-up visits. Tender and swollen joint counts were assessed by physical examination.

[1] = Early Termination Visit, Pegloticase Baseline, mITT Population
[2] = End of Pegloticase Infusions Visit, Pegloticase Baseline, mITT Population
[3] = Week 14, Pegloticase Baseline, mITT Population
[4] = Week 24, Pegloticase Baseline, mITT Population
[5] = Week 36, Pegloticase Baseline, mITT Population
[6] = Week 52/ET, Pegloticase Baseline, mITT Population
[7] = mITT, Early Termination Visit, n=3
[8] = mITT, End of Pegloticase Infusions Visit, n=2

In the case of pegloticase, the “Swollen Joint Count, Change from Baseline, Mean (SD)” value [1] is reported as −3.3 (3.06), the “Swollen Joint Count, Change from Baseline, Median” value [1] is reported as −4.0 and the “Swollen Joint Count, Observed, Mean (SD)” value [1] is reported as 0.7 (0.58). For the same substance, the “Swollen Joint Count, Observed, Median” value [1] was 1.0, the “Tender Joint Count, Change from Baseline, Mean (SD)” value [1] was −2.7 (4.16) and the “Tender Joint Count, Change from Baseline, Median” value [1] was −4.0. For the same substance, the “Tender Joint Count, Observed, Mean (SD)” value [1] was 7.7 (8.96), the “Tender Joint Count, Observed, Median” value [1] was 3.0 and the “Swollen Joint Count, Change from Baseline, Mean (SD)” value [2] was −2.0 (2.83). For the same substance, the “Swollen Joint Count, Change from Baseline, Median” value [2] was −2.0, the “Swollen Joint Count, Observed, Mean (SD)” value [2] was 0.0 (0.00) and the “Swollen Joint Count, Observed, Median” value [2] was 0.0. For the same substance, the “Tender Joint Count, Change from Baseline, Mean (SD)” value [2] was −3.0 (5.66), the “Tender Joint Count, Change from Baseline, Median” value [2] was −3.0 and the “Tender Joint Count, Observed, Mean (SD)” value [2] was 2.0 (2.83). For the same substance, the “Tender Joint Count, Observed, Median” value [2] was 2.0, the “Swollen Joint Count, Change from Baseline, Mean (SD)” value [3] was −3.6 (7.04) and the “Swollen Joint Count, Change from Baseline, Median” value [3] was −2.5. For the same substance, the “Swollen Joint Count, Observed, Mean (SD)” value [3] was 1.7 (3.73), the “Swollen Joint Count, Observed, Median” value [3] was 0.0 and the “Tender Joint Count, Change from Baseline, Mean (SD)” value [3] was −5.1 (8.12). For the same substance, the “Tender Joint Count, Change from Baseline, Median” value [3] was −5.0, the “Tender Joint Count, Observed, Mean (SD)” value [3] was 4.6 (6.16) and the “Tender Joint Count, Observed, Median” value [3] was 2.0. For the same substance, the “Swollen Joint Count, Change from Baseline, Mean (SD)” value [4] was −5.1 (6.66), the “Swollen Joint Count, Change from Baseline, Median” value [4] was −3.0 and the “Swollen Joint Count, Observed, Mean (SD)” value [4] was 0.5 (1.21). For the same substance, the “Swollen Joint Count, Observed, Median” value [4] was 0.0, the “Tender Joint Count, Change from Baseline, Mean (SD)” value [4] was −6.8 (8.16) and the “Tender Joint Count, Change from Baseline, Median” value [4] was −4.0. The “Tender Joint Count, Observed, Mean (SD)” value [4] was 2.6 (3.88), the “Tender Joint Count, Observed, Median” value [4] was 0.0 and the “Swollen Joint Count, Change from Baseline, Mean (SD)” value [5] was −6.2 (8.15). For the same substance, the “Swollen Joint Count, Change from Baseline, Median” value [5] was −4.0, the “Swollen Joint Count, Observed, Mean (SD)” value [5] was 0.1 (0.33) and the “Swollen Joint Count, Observed, Median” value [5] was 0.0. The “Tender Joint Count, Change from Baseline, Mean (SD)” value [5] was −7.8 (8.94), the “Tender Joint Count, Change from Baseline, Median” value [5] was −4.0 and the “Tender Joint Count, Observed, Mean (SD)” value [5] was 2.1 (4.54). For the same substance, the “Tender Joint Count, Observed, Median” value [5] was 0.0, the “Swollen Joint Count, Change from Baseline, Mean (SD)” value [6] was −13.0 (13.00) and the “Swollen Joint Count, Change from Baseline, Median” value [6] was −13.0. The “Swollen Joint Count, Observed, Mean (SD)” value [6] was 0.0 (0.00), the “Swollen Joint Count, Observed, Median” value [6] was 0.0 and the “Tender Joint Count, Change from Baseline, Mean (SD)” value [6] was −16.0 (17.52). The “Tender Joint Count, Change from Baseline, Median” value [6] was −15.0, the “Tender Joint Count, Observed, Mean (SD)” value [6] was 5.3 (3.21) and the “Tender Joint Count, Observed, Median” value [6] was 4.0. The “Swollen Joint Count, Change from Methotrexate Baseline, Mean (SD)” value (mITT, Day 1, n=14) was −0.7 (5.21), the “Swollen Joint Count, Change from Methotrexate Baseline, Median” value (mITT, Day 1, n=14) was 0.5 and the “Swollen Joint Count, Observed, Mean (SD)” value (mITT, Day 1, n=14) was 5.3 (6.94). For the same substance, the “Swollen Joint Count, Observed, Median” value (mITT, Day 1, n=14) was 3.5, the “Tender Joint Count, Change from Methotrexate Baseline, Mean (SD)” value (mITT, Day 1, n=14) was −1.9 (9.75) and the “Tender Joint Count, Change from Methotrexate Baseline, Median” value (mITT, Day 1, n=14) was 0.0. The “Tender Joint Count, Observed, Mean (SD)” value (mITT, Day 1, n=14) was 9.6 (11.03), the “Tender Joint Count, Observed, Median” value (mITT, Day 1, n=14) was 7.0 and the “Swollen Joint Count, Change from Methotrexate Baseline, Mean (SD)” value [7] was −1.0 (1.73). The “Swollen Joint Count, Change from Methotrexate Baseline, Median” value [7] was 0.0, the “Swollen Joint Count, Observed, Mean (SD)” value [7] was 0.7 (0.58) and the “Swollen Joint Count, Observed, Median” value [7] was 1.0. For the same substance, the “Tender Joint Count, Change from Methotrexate Baseline, Mean (SD)” value [7] was 0.7 (5.13), the “Tender Joint Count, Change from Methotrexate Baseline, Median” value [7] was 2.0 and the “Tender Joint Count, Observed, Mean (SD)” value [7] was 7.7 (8.96). The “Tender Joint Count, Observed, Median” value [7] was 3.0, the “Swollen Joint Count, Change from Methotrexate Baseline, Mean (SD)” value [8] was −7.0 (4.24) and the “Swollen Joint Count, Change from Methotrexate Baseline, Median” value [8] was −7.0. The “Swollen Joint Count, Observed, Mean (SD)” value [8] was 0.0 (0.00), the “Swollen Joint Count, Observed, Median” value [8] was 0.0 and the “Tender Joint Count, Change from Methotrexate Baseline, Mean (SD)” value [8] was −12.0 (7.07). For the same substance, the “Tender Joint Count, Change from Methotrexate Baseline, Median” value [8] was −12.0, the “Tender Joint Count, Observed, Mean (SD)” value [8] was 2.0 (2.83) and the “Tender Joint Count, Observed, Median” value [8] was 2.0. The “Swollen Joint Count, Change from Methotrexate Baseline, Mean (SD)” value (mITT, Week 14, n=14) was −4.3 (7.38), the “Swollen Joint Count, Change from Methotrexate Baseline, Median” value (mITT, Week 14, n=14) was −2.0 and the “Swollen Joint Count, Observed, Mean (SD)” value (mITT, Week 14, n=14) was 1.7 (3.73). The “Swollen Joint Count, Observed, Median” value (mITT, Week 14, n=14) was 0.0, the “Tender Joint Count, Change from Methotrexate Baseline, Mean (SD)” value (mITT, Week 14, n=14) was −7.0 (14.20) and the “Tender Joint Count, Change from Methotrexate Baseline, Median” value (mITT, Week 14, n=14) was 0.0. The “Tender Joint Count, Observed, Mean (SD)” value (mITT, Week 14, n=14) was 4.6 (6.16), the “Tender Joint Count, Observed, Median” value (mITT, Week 14, n=14) was 2.0 and the “Swollen Joint Count, Change from Methotrexate Baseline, Mean (SD)” value (mITT, Week 24, n=11) was −6.6 (9.03). The “Swollen Joint Count, Change from Methotrexate Baseline, Median” value (mITT, Week 24, n=11) was −3.0, the “Swollen Joint Count, Observed, Mean (SD)” value (mITT, Week 24, n=11) was 0.5 (1.21) and the “Swollen Joint Count, Observed, Median” value (mITT, Week 24, n=11) was 0.0. The “Tender Joint Count, Change from Methotrexate Baseline, Mean (SD)” value (mITT, Week 24, n=11) was −10.2 (14.27), the “Tender Joint Count, Change from Methotrexate Baseline, Median” value (mITT, Week 24, n=11) was −4.0 and the “Tender Joint Count, Observed, Mean (SD)” value (mITT, Week 24, n=11) was 2.6 (3.88). For the same substance, the “Tender Joint Count, Observed, Median” value (mITT, Week 24, n=11) was 0.0, the “Swollen Joint Count, Change from Methotrexate Baseline, Mean (SD)” value (mITT, Week 36, n=9) was −7.8 (10.81) and the “Swollen Joint Count, Change from Methotrexate Baseline, Median” value (mITT, Week 36, n=9) was −3.0. The “Swollen Joint Count, Observed, Mean (SD)” value (mITT, Week 36, n=9) was 0.1 (0.33), the “Swollen Joint Count, Observed, Median” value (mITT, Week 36, n=9) was 0.0 and the “Tender Joint Count, Change from Methotrexate Baseline, Mean (SD)” value (mITT, Week 36, n=9) was −12.3 (14.56). The “Tender Joint Count, Change from Methotrexate Baseline, Median” value (mITT, Week 36, n=9) was −7.0, the “Tender Joint Count, Observed, Mean (SD)” value (mITT, Week 36, n=9) was 2.1 (4.54) and the “Tender Joint Count, Observed, Median” value (mITT, Week 36, n=9) was 0.0. For the same substance, the “Swollen Joint Count, Change from Methotrexate Baseline, Mean (SD)” value (mITT, Week 52/ET, n=3) was −21.0 (9.64), the “Swollen Joint Count, Change from Methotrexate Baseline, Median” value (mITT, Week 52/ET, n=3) was −25.0 and the “Swollen Joint Count, Observed, Mean (SD)” value (mITT, Week 52/ET, n=3) was 0.0 (0.00). For the same substance, the “Swollen Joint Count, Observed, Median” value (mITT, Week 52/ET, n=3) was 0.0, the “Tender Joint Count, Change from Methotrexate Baseline, Mean (SD)” value (mITT, Week 52/ET, n=3) was −24.0 (21.38) and the “Tender Joint Count, Change from Methotrexate Baseline, Median” value (mITT, Week 52/ET, n=3) was −17.0. For the same substance, the “Tender Joint Count, Observed, Mean (SD)” value (mITT, Week 52/ET, n=3) was 5.3 (3.21) and the “Tender Joint Count, Observed, Median” value (mITT, Week 52/ET, n=3) was 4.0.
